# Measured values published in patent US20040259835A1, “Stabilized brivudine topical formulations” (priority 2001, published 2004).
# Like-named read-outs stand apart in the source and are kept apart here.
# Assays:
# [1] = Photostabilization of brivudine by admixed substances (formulation not specified); type: physicochemical
# From the text: DE 3136282 proposes to protect light-unstable drugs using substances with a similar absorption profile. The protective effect is supposed to depend on the similarity between the absorption spectra of the stabilizer and of the drug, that is, the larger is the overlapping between the two absorption spectra, the better is the photo-stabilization. According to DE3136282, the ICH (International Conference on Harmonisation) guideline CPMP/ICH/279/95 was followed to determine brivudine degradation. Several substances, including pharmaceutical excipients, colorants or photostable drugs were tested in admixture with brivudine.
# [2] = UV light; isomerization to Z-BVDU and other decomposition products; state of the art; cited from earlier work
# [3] = test system: herpes simplex virus type 1 (HSV-1); settings: state of the art; cited from earlier work
# [4] = test system: varicella-zoster virus (VZV); settings: state of the art; cited from earlier work
# [5] = substance in admixture with brivudine, UV irradiation
Molecule,photostabilization of brivudine (in words) [1],further results
4-Bis(polyethoxy)paraamino-benzoicacid-polyethoxy-ethylester [Uvinul ® P25],–,"photostabilization of brivudine (in words) [1, 5]: No effects"
"7-Hydroxy-8-(4-sulfonato-1-naphthylazo)-naphthalin-1,3-disulfonic acid, trisodium salt [Cochineal Red A]",–,fold increase of brivudine photostabilization / recovery ([1]; with respect to brivudine alone): more then threefold
"O=C(c1ccc(O)cc1O)c1ccc(O)cc1O [2,2′,4,4′-tetrahydroxybenzophenon, 2,2′,4,4′-tetrahydroxy-benzophenone]",effectively stabilize,–
"COc1cc(O)c(C(=O)c2cc(S(=O)(=O)[O-])c(OC)cc2O)cc1S(=O)(=O)[O-].[Na+].[Na+] [2,2′-dihydroxy-4,4′-dimethoxybenzophenone-5,5′-disodium sulfonate]",effectively stabilize,–
"O=C(c1ccccc1)c1ccc(O)cc1O [2,4-dihydroxy benzophenone]",effectively stabilize,–
COc1ccc(C(=O)c2ccccc2O)c(O)c1 [Dioxybenzone],effectively stabilize,–
"O=S(=O)([O-])c1ccc2c(N=Nc3ccc(S(=O)(=O)[O-])c4ccccc34)c(O)c(S(=O)(=O)[O-])cc2c1.[Na+].[Na+].[Na+] [Food red 9, 3-Hydroxy-4-(4-sulfonato-1-naphtylazo)-naphthalin-2,7-disulfonic acid, Trisodium salt]",–,protection of brivudine from decomposition over the controls ([1]; versus controls): more than 30%
COc1ccc(C(=O)c2ccccc2)c(O)c1 [Oxybenzone],effectively stabilize,–
CCCCC(CC)COC(=O)c1ccc(N(C)C)cc1 (centres unmarked) [Padimate O],No effects,–
COc1cc(O)c(C(=O)c2ccccc2)cc1S(=O)(=O)O [Sulisobenzone],effectively stabilize,–
"O=S(=O)([O-])c1ccc(N=Nc2ccc(O)cc2O)cc1.[Na+] [Tropaeolin 0, 2,4-dihydroxyazobenzol-4′-sulfonic acid sodium salt]",best recovery rates,degradation of brivudine (in words) [1]: nearly no degradation of brivudine was detectable
"CCCCC(CC)COC(=O)c1ccc(Nc2nc(Nc3ccc(C(=O)OCC(CC)CCCC)cc3)nc(Nc3ccc(C(=O)OCC(CC)CCCC)cc3)n2)cc1 (centres unmarked) [Uvinul® T150, 2,4,6-trianilino-p-(carbo-2′-ethyl-hexyl-1′-oxi)-1,3,5-triazin]",No effects,–
COc1cc(C=O)ccc1O [Vanillin],–,"photostabilization of brivudine (in words) [1, 5]: did not satisfactorily stabilize brivudine"
O=C(O)CCCCC1CCSS1 (stereo not drawn) [alpha-liponic acid],did not show any effect,–
COc1ccc(C(=O)CC(=O)c2ccc(C(C)(C)C)cc2)cc1 [avobenzone],"stabilize brivudine, although to a lesser extent",–
"CC1=C(/C=C/C(C)=C/C=C/C(C)=C/C=C/C=C(C)/C=C/C=C(C)/C=C/C2=C(C)CCCC2(C)C)C(C)(C)CCC1 [beta carotene, beta-carotene]",remarkable photostabilization,–
"O=c1[nH]c(=O)n([C@H]2C[C@H](O)[C@@H](CO)O2)cc1/C=C/Br [brivudine, (E)-5-(2-bromovinyl)-2′-deoxyuridine]",–,light stability of brivudine (in words) [2]: light-instability; effectiveness against HSV-1 (in words) [3]: very effective; effectiveness against VZV (in words) [4]: very effective
N[C@@H](CS)C(=O)O [cystein],did not show any effect,–
CC1CC(OC(=O)c2ccccc2O)CC(C)(C)C1 (centres unmarked) [homosalate],No effects,–
Cc1ccc(/C=C2/C(=O)C3(C)CCC2C3(C)C)cc1 (centres unmarked) [methyl-benzylidene-camphor],"stabilize brivudine, although to a lesser extent",–
CCCCC(CC)COC(=O)C(C#N)=C(c1ccccc1)c1ccccc1 (centres unmarked) [octocrylene],"stabilize brivudine, although to a lesser extent",–
CCCCC(CC)COC(=O)C=Cc1ccc(OC)cc1 (centres unmarked) [octyl-methoxy-cinnamate],"stabilize brivudine, although to a lesser extent",–
"Type I: 2-(1,3-Dioxo-2-indanyl)-chinolin-disulfonic acid, Disodium salt Type II: 2-(1,3-Dioxo-2-indanyl)-methylchinolin-disulfonic acid, Disodium salt [Quinoline Yellow]",–,"photostabilization of brivudine (in words) [1, 5]: did not satisfactorily stabilize brivudine"
